The test system of assay [1] is xenograft models. Conditions: most xenograft models tested; cited from earlier work.
Assay [2] concerns KO.c cell line. The assay is described as follows: Cell migration assay, response to HGF. It counts as cell-based, mouse. To be noted: HGF 40 ng/ml, 18 hours, KO.c cells. The text has this:
(§1) Primary epithelial cells, designated as K0.1, K0.2, K0.3 and K0.4, were isolated from PyMT.epiVEGF−/− tumors. Primary epithelial cells, designated as WT. 1, WT.2, WT.3, WT.4 and WT.5, were isolated from in PyMT.epiVEGF+/+ tumors. WT.c is epithelial cells from a cell line created from PyMT.VEGF+/+.loxP tumor. KO.c is epithelial cells from a cell line created from PyMT.VEGF+/+.loxP tumors wherein VEGF was knocked out by Adenovirus expressing Cre-recombinase (Adeno-Cre) infection in vitro. Epithelial-specific Cre-loxP recombination was confirmed through immunocytochemistry with anti-Cre recombinase antibody. VEGF expression level was not detectable in Ko.c cell lines by ELISA.
(§2) Migration assays were performed using BD Falcon™ FluoroBlok™ 24-Multiwell Insert System, 8 um pore size (BD Biosciences, Bedford, Mass.). The plates were coated with 5 ug/ml Fibronectin (Sigma) for 2 hours at 37° C. Cells in 300 μl assay medium (0.5% FBS, DMEM/F12) were added to the upper chamber. HGF 40 ng/ml in 750 ul assay medium was added to the lower chamber, and cells were incubated at 37° C. for 18 hours. Cells on the lower surface were fixed in MeOH and stained with YO-PRO-1 (Molecular Probes, Eugene, Oreg.). Images were acquired and analyzed using the ImageXpress Micro platform (MDS Analytical; Sunnyvale, Calif.). The Count Nuclei application in Metamorph was used to identify and count migrated cells.

For assay [3], the system named is WT.c cell line. In words: Cell migration assay, response to HGF. It counts as cell-based, mouse. To be noted: HGF 40 ng/ml, 18 hours, WT.c cells.
Excerpt: as §1, §2

Assay [4] relates to primary epithelial cells from PyMT.epiVEGF+/+ tumors. In words: Cell migration assay, response to HGF. In kind it is cell-based, mouse. Conditions: HGF 40 ng/ml, 18 hours, primary tumors from PyMT.epiVEGF+/+ mice.
Excerpt: as §1, §2

Assay [5] concerns primary epithelial cells from PyMT.epiVEGF−/− tumors. The assay is described as follows: Cell migration assay, response to HGF. It counts as cell-based, mouse. To be noted: HGF 40 ng/ml, 18 hours, primary tumors from PyMT.epiVEGF−/− mice.
Excerpt: as §1, §2

As for “bevacizumab: humanized anti-VEGF monoclonal antibody”, in assay [1], the tumor angiogenesis result is given as “reduced” and the tumor growth result was “significantly inhibited”.
As to “HGF: hepatocyte growth factor, added at 40 ng/ml to the lower chamber in the migration assay”, the “fold increase in migration with HGF treatment” value in assay [2] is 2.3 fold; in assay [3], 1.5 fold. The “average increase in migratory response to HGF” value in assay [4] turned out to be 1.8 fold; in assay [5], 2.5 fold.

The values above are taken from patent US20100055099A1, “Diagnostics and Treatments for VEGF-Independent Tumors” (priority 2008, published 2010).
